Consider 36 molecules from publication PMC9241686 (Microbiology Spectrum, 2022).

Like-named read-outs stand apart in the source and are kept apart here.

In assay [1] the test system is intracellular M. tuberculosis. Set-up: method as in PMID 35046812. Conditions: M. tuberculosis in RAW 264.7, high-content assay; primary screen hits; read-out: Intracellular TB IC50; cited from earlier work.
In assay [2] the test system is macrophages (RAW 264.7). Set-up: method as in PMID 35046812. Conditions: RAW 264.7 infected macrophages, high-content assay; primary screen hits; read-out: Macrophage IC50; cited from earlier work.
Assay [3] has as its system extracellular M. tuberculosis. Also on record: method as in PMID 35046812. Conditions: standard culture medium; primary screen hits; read-out: Extracellular TB IC50; cited from earlier work.
Assay [4] deals with HepG2 cells. Set-up: method as in PMID 35046812. Conditions: standard culture medium; primary screen hits; cited from earlier work.
Assay [5] deals with HepG2 cells. Description: cells. In kind it is cell-based, human. Conditions: 72 h, CellTiter-Glo; for IC50: Homo sapiens, HepG2.
Assay [6] relates to extracellular M. tuberculosis. Description: microbe, parasite or virus in culture. It counts as cell-based. Conditions: Mycobacterium tuberculosis.
Assay [7] deals with intracellular M. tuberculosis. Description: microbe, parasite or virus in culture. Conditions: for IC50 / Intracellular TB IC50: M. tuberculosis in RAW 264.7, high-content assay, 72 h; for IC50: read-out: Intracellular TB IC50; for selectivity index (SI): cytotoxicity IC50 over intracellular M. tuberculosis IC50; for fold difference between extracellular and intracellular IC50: extracellular versus intracellular M. tuberculosis. In kind it is cell-based, Mycobacterium tuberculosis.

In assay [8] the test system is macrophages (RAW 264.7). Description: cells. It counts as cell-based, murine. Conditions: RAW 264.7 infected macrophages, high-content assay, 72 h; for IC50: Mus musculus, RAW264.7, read-out: Macrophage IC50.
Assay [9] deals with extracellular M. tuberculosis. Description: microbe, parasite or virus in culture. It counts as cell-based, Mycobacterium tuberculosis. Conditions: for IC50: Mycobacterium tuberculosis, 168 h, read-out: Cholesterol IC50; for Fold-change: glucose IC50 versus cholesterol IC50.
Where [10] appears, read: 120 h, read-out: Extracellular TB IC50.
[11] abbreviates: Mycobacterium tuberculosis, RAW264.7, 72 h.
[12] abbreviates: glucose as carbon source, read-out: Glucose IC50.

`CCOc1ccc(NC(=S)Nc2ccccc2)cc1` [Compound 1]: the IC50 in assay [1] is 0.4 µM; in assay [2], > 100 µM; in assay [3], > 20 µM; in assay [4], > 100 µM.
`CCOc1ccc(NC(=S)Nc2ccc(C)c(C#N)c2)cc1` [Compound 2]: the IC50 in assay [1] was 0.3 µM; in [2], 47 µM; in assay [3], 9.5 µM; in [4], 64 µM.
Take `O=C(Nc1ccc(Cl)cc1)Nc1ccc(Nc2ccccc2)cc1` [Compound 3]: the values for the IC50 in assay [2], in assay [3] and in assay [4] were 68 µM, > 20 µM and > 100 µM, respectively.
Turning to `O=C(Nc1ccc(C(F)(F)F)cc1)Nc1cccc(Cl)c1` [Compound 4], the IC50 in [1] was 0.7 µM; in assay [2], 1.8 µM; in assay [3], 15 µM; in assay [4], 5.6 µM.
As for `Cc1cc(C)nc(NC(=N)Nc2ccc(Br)cc2)n1` [Compound 5], the IC50 in assay [1] is 1.3 µM; in assay [2] it was 18 µM; in assay [3] it was 8.2 µM; in assay [4] it was 22 µM.
As for `Fc1cccc(NC(=S)Nc2ccccc2C(F)(F)F)c1` [Compound 7], the IC50 in [5] was 86 µM; in assay [6] (setting [10]) it was > 200 µM; in assay [7] (setting [11]), > 100 µM; in assay [8], 53 µM.
As for `CCOc1ccc(NC(=S)NC)cc1` [Compound 8], the concentration for half-maximal inhibition (IC50) in [5] is > 100 µM; in assay [6] (setting [10]), 80 µM; in [7], 10 µM; in assay [7] (setting [11]), < 20 µM; in assay [8] it was > 100 µM.
As for `S=C(Nc1ccccc1)NC1CCCCC1` [Compound 9], the IC50 was > 100 µM in assay [5], 130 µM in assay [6] (setting [10]), > 100 µM in [7] (setting [11]) and > 100 µM in [8]. For the same molecule, in [7], the “Intracellular TB IC50” value is listed as “loss of intracellular activity”.
On to `CNC(=S)Nc1ccccc1` [Compound 10], for which the IC50 in assay [5] is > 100 µM; in [6] (setting [10]), > 200 µM; in [7] (setting [11]), > 100 µM; in assay [8] it was > 100 µM.
With `CCOc1ccc(NC(=S)Nc2ccccc2C(=O)OC)cc1` [Compound 11], the IC50 is > 100 µM in [5], > 200 µM in assay [6] (setting [10]) and 46 µM in assay [8].
On to `COc1ccc(NC(=S)Nc2ccccc2C)cc1` [Compound 12], for which the IC50 is > 100 µM in assay [5]; > 200 µM in assay [6] (setting [10]); 19 µM in assay [7]; < 20 µM in [7] (setting [11]); > 100 µM in assay [8].
For `COc1ccc(NC(=S)Nc2ccc(C(N)=O)cc2)cc1` [Compound 13], the IC50 is > 100 µM in [5], > 200 µM in [6] (setting [10]), > 100 µM in assay [7] (setting [11]) and > 100 µM in assay [8]. In addition, in [7], the “Intracellular TB IC50” value was “inactive”.
`COc1ccc(NC(=S)Nc2ccccc2Cl)cc1` [Compound 15]: the IC50 was > 100 µM in assay [5]; > 200 µM in assay [6] (setting [10]); 14 µM in [7]; < 20 µM in assay [7] (setting [11]); > 100 µM in assay [8].
Consider `CCOc1ccc2nc(NC(=S)Nc3ccccc3)sc2c1` [Compound 16], for which the IC50 is 6.6 µM in [9]; 73 µM in [5]; 26 µM in [6] (setting [10]); 26 µM in assay [6] (setting [12]); 0.75 µM in [7]; < 1 µM in assay [7] (setting [11]). Besides, the IC50 in [8] is 28 µM. The Fold-change in [9] is on record as 3.9.
Regarding `S=C(Nc1ccccc1)Nc1ccc(Cl)cc1` [Compound 17], the IC50 in [5] was 91 µM; in assay [6] (setting [10]), 104 µM; in assay [7], 16 µM; in [7] (setting [11]), < 20 µM; in [8], 42 µM.
As for `COc1ccc(NC(=S)Nc2ccccc2C(F)(F)F)cc1OC` [Compound 18], the IC50 was > 100 µM in [5], > 200 µM in assay [6] (setting [10]), > 100 µM in assay [7] (setting [11]) and > 100 µM in assay [8]. Moreover, the “Intracellular TB IC50” value in assay [7] was “inactive”.
As for `COc1ccc(NC(=S)Nc2ccc(F)cc2)cc1` [Compound 20], the IC50 in [5] is > 100 µM; in [6] (setting [10]) it was 91 µM; in assay [7] (setting [11]) it was 9.2 µM; in assay [8], > 100 µM.
As to `CCCc1nnc(NC(=S)Nc2ccccc2)s1` [Compound 21], the IC50 in assay [5] is > 100 µM; in [6] (setting [10]), 14.5 µM. The “selectivity index (SI)” value in assay [7] is listed as > 200.
On to `CC(C)(C)c1nnc(NC(=S)Nc2ccccc2)s1` [Compound 22], for which the IC50 in assay [9] was 5.7 µM; in assay [5], > 99 µM; in [6] (setting [10]) it was 11 µM; in [6] (setting [12]), 11 µM; in assay [7], 0.51 µM; in assay [7] (setting [11]), < 1 µM. Further, the IC50 in assay [8] is > 100 µM. Besides, the Fold-change in assay [9] was found to be 1.9. Besides, the “selectivity index (SI)” value in assay [7] is recorded as > 200. In assay [7], the “fold difference between extracellular and intracellular IC50” value was > 20 fold.
Regarding `FC(F)(F)c1cccc(NC(=S)Nc2cccnc2)c1` [Compound 23], the IC50 in [5] was 62 µM; in assay [6] (setting [10]), 125 µM; in assay [8], 30 µM. Further, in [8], the “Macrophage IC50” value is given as “cytotoxicity to macrophages”.
On to `COc1ccc(NC(=S)Nc2ccc(Br)cc2)cc1` [Compound 24], for which the IC50 in assay [5] was > 100 µM; in [6] (setting [10]), 16 µM; in assay [7] (setting [11]) it was 2.1 µM; in [8] it was 72 µM. Besides, the “fold increase in potency” value in assay [7] (intracellular IC50, bromine replacing fluorine) is on record as 5 fold.
As to `COc1cccc(NC(=S)Nc2cccc(C(F)(F)F)c2)c1` [Compound 25], the IC50 in assay [5] turned out to be 24 µM; in assay [6] (setting [10]), 63 µM; in [7] (setting [11]), 9.6 µM; in assay [8], 17 µM.
In the case of `FC(F)(F)c1cccc(NC(=S)NCCc2ccc(Cl)cc2)c1` [Compound 26], the IC50 worked out at 23 µM in assay [5], 30 µM in [6] (setting [10]) and 9.3 µM in assay [8].
In the case of `O=C(NC(=S)Nc1ccc2oc(-c3ccccc3)nc2c1)c1ccccc1` [Compound 27], the IC50 was > 100 µM in assay [5], > 200 µM in assay [6] (setting [10]) and 80 µM in assay [8]. Also, in assay [7], the “selectivity index (SI)” value is listed as > 200. In addition, the “fold difference between extracellular and intracellular IC50” value in assay [7] is > 500 fold.
For the molecule `COc1ccc(C(F)(F)F)cc1NC(=O)Nc1cccc(Cl)c1` [Compound 28], the IC50 in assay [5] worked out at 12 µM; in assay [6] (setting [10]), 25 µM; in assay [8] it was 3 µM.
For `COc1ccc2nc(NC(=O)Nc3ccc(Cl)cc3)sc2c1` [Compound 29] the same measures were > 100 µM, > 200 µM and 56 µM.
For `COc1ccc(NC(=O)Nc2nc3ccccc3s2)cc1` [Compound 30], the IC50 in assay [5] was 54 µM; in assay [6] (setting [10]), > 200 µM; in assay [8], 52 µM.
For `CNC(=O)Nc1ccc(Br)cc1` [Compound 31], the IC50 in assay [5] is > 100 µM; in [6] (setting [10]), > 200 µM; in assay [7] (setting [11]) it was 64 µM; in assay [8], > 100 µM.
Regarding `O=C(Nc1ccccc1)Nc1ccc(Cl)cc1` [Compound 33], the IC50 in assay [5] was > 100 µM; in [6] (setting [10]) it was > 200 µM; in assay [7] (setting [11]) it was > 100 µM; in [8] it was > 100 µM.
In the case of `CC(C)(C)c1nnc(NC(=O)Nc2ccc(Cl)cc2)s1` [Compound 34], the IC50 in assay [5] was > 100 µM; in assay [6] (setting [10]), > 200 µM; in assay [7] (setting [11]), 84 µM; in [8] it was > 100 µM. Besides, the “Intracellular TB IC50” value in [7] is “lost activity”.
Regarding `O=C(Nc1cccc(Cl)c1)NC1CCCCC1` [Compound 35], in assay [5], the “HepG2 IC50” value is “no cytotoxicity”. Further, the IC50 is > 100 µM in assay [5], 28 µM in assay [6] (setting [10]), 4.5 µM in assay [7] (setting [11]) and > 100 µM in assay [8].
Regarding `Cc1nnc(NC(=O)Nc2ccccc2)s1` [Compound 36], the IC50 in assay [5] was > 100 µM; in assay [6] (setting [10]) it was > 200 µM; in [7] (setting [11]) it was > 100 µM; in assay [8], > 100 µM.
In the case of `COc1cc(NC(=S)Nc2ccc(C(F)(F)F)cc2)cc(OC)c1` [Compound 37], the values for the IC50 in assay [5], in [6] (setting [10]) and in assay [8] were 49 µM, > 200 µM and 29 µM, respectively.
`CC(C)c1ccc(NC(=O)Nc2ccccc2)cc1` [Compound 38]: the IC50 was 55 µM in [5], > 200 µM in [6] (setting [10]), > 100 µM in [7] (setting [11]) and 85 µM in assay [8].
Turning to `N#Cc1ccc(NC(=O)Nc2ccc(Cl)cc2)cc1` [Compound 39], the IC50 in [5] worked out at 6.5 µM; in assay [6] (setting [10]), 11 µM; in assay [8] it was 3 µM.
For `COc1cccc(NC(=O)Nc2ccc(C(F)(F)F)cc2)c1` [Compound 40] the same measures were 11 µM, 31 µM and 5.2 µM.
